Assay results from US10232043B2, “Photoactivated molecules for light-induced modulation of the activity of electrically excitable cells and methods of using the same” (UNIVERSITY OF SOUTHERN CALIFORNIA, priority 2015, dated 2019).
Entries after “also recorded” stand apart in the source; their conditions may differ.

Assays:
[1] = tested on: whole-mount retinas from RCS rats; assay: Whole-mount retina multi-electrode recording; assay type: cell-based, rat; details: photoreceptor-degenerate retina, 100 micromolar for 30 minutes, 480 nm
Excerpt: FIG. 26 illustrates data from whole-mount retinas from RCS rats. […] Each bin represents the frequency of spikes for 1 second. Before Rubpy treatment (14A), illumination at 480 nm elicited minimal change in spike frequency. […] Downward arrows mark the time of 100 ms (1st) and 1 second (2nd to fourth) light stimuli
The retina will be freshly dissected from Royal College of Surgeons (RCS) rats (9 months or older to ensure total loss of photoreceptors). The whole-mount retina will then be placed onto a multi-electrode array with the ganglion cell layer side facing the electrodes and is held down on the array using a lightly weighted porous membrane. Extracellular field potentials are recorded from 15 or 75 μm diameter electrodes using an MEA1060-Up amplifier and MC Rack software (Multi-Channel Systems). The activity of the retinal in response to illumination is monitored before and after PVN incubation. The retina is continuously perfused with oxygenated (95% O2, 5% CO2), heated (32C) Ames' Medium for baseline activity. The retina is then perfused with Ames' Medium containing PVN for 30 min to 1 hr, followed by 10 min wash with regular Ames' Medium before recording in Ames' Medium with 5-10 mM ascorbate. The retina will be illuminated by white LED light through a bandpass excitation filter (460-500 nm) with durations of 100 μs, 1 ms, 10 ms, 100 ms, […] and 30 s. […]

[2] = tested on: mouse adrenal chromaffin cells; assay: Perforated patch clamp, light-triggered action potentials; assay type: cell-based
Procedure: Action potentials in chromaffin cells were monitored using perforated patch clamp electrophysiology in current-clamp mode, using an EPC10 amplifier and Pulsemaster data acquisition software (HEKA electronics). A coverslip containing mouse chromaffin cells was transferred to a recording chamber and perfused with extracellular solution. Extracellular solution consists of 140 mM NaCl, 2.8 mM KCl, 10 mM HEPES, 1 mM MgCl2, 2 mM CaCl2, 10 mM glucose, pH adjusted to 7.3, and osmolarity adjusted to 290-300 mOsm. Intracellular solution consisted of 145 mM KCl, 10 mM NaCl, 1 mM MgCl2, and 10 mM HEPES, pH adjusted to 7.3 and osmolarity adjusted to 290-300 mOsm. Perforation solution was prepared by adding 4.5 μl of 125 mg/ml stock of amphoterecin B (Sigma) in DMSO to 1.8 mls of intracellular solution, and homogenizing for 540 s. Perforation was achieved within 3-10 min following gigaseal formation. Series resistances were in the range of 8-22 Mohm. Light stimulation in the blue spectrum originated from a xenon lamp source with an irradiance value of 0.480 mE s^−1 m^−2 through a 470/40 nm bandpass excitation filter. The duration of illumination varied and is indicated by bars on figures.
The behavior of excitable cells (cells capable of firing action potentials) treated with RubpyC17 was next investigated. Perforated patch clamp recording was performed on, mouse adrenal chromaffin cells pretreated with 450-900 nM RubpyC17 for 15-30 minutes before beginning electrophysiological recordings.

HEK293T cells = assay: Effect of PF6:Cl counter ion ratio of Rubpy-C17 on HEK293T cells; assay type: cell-based
Procedure: In some embodiments, the 20 mg of Rubpy-C17 is stored in −20° C. with desiccant in the dark. […] 253 μl of DMSO is then added into the original bottle containing Rubpy-C17 to make 100 mM stock solution. In some embodiments, the stock solution is aliquot and stored in −20° C. with desiccant in the dark.
In some examples, on the day before or on, the same day of the experiment, the following 2.5 mM external solution is prepared using the following steps. The external solution is warmed up to 37° C. For […] of the external solution, 0.176 grams of absorbic acid was added. Another 240 μL 5M NaOH was added to adjust the pH to between about 7.2-7.4. The absorbic solution can then be filtered through a 0.2 μm filter. The solution is then stored in the dark in 4° C. In some examples, the solution must be used within one week.
The 100 mM of Rubpy solution is first thawed from −20° C. 100 mM Rubpy is then diluted to 10 mM Rubpy: 2 μL 100 mM Rubpy+18 μL DMSO. In some examples, this is vortexted to mix and then centrifuged down with a small bench-top. The culture, medium is aspirated and the cells are rinsed with external solution several times. The external solution can then be aspirated. In some examples, enough of the external solution is left on the cells to prevent it from drying. 500 μL of external solution with 2.5 mM of ascorbic acid can then be added.
In some examples, 1 μL of 10 mM of Rubpy to […] of external solution with 2.5 mM ascorbic acid and mixed well. This should produce a final concentration of 10 μM of Rubpy with 0.1% DMSO. This mixed solution is then added to the above referenced cells and incubated for 10 minutes.
The solution can then be aspirated from the plate and rinsed with regular external solution several times. 2 mL of external solution is added to 2.5 mM ascorbic acid for recording. For each plate, a baseline control is taken by recording the first cell before performing any light-stimulating protocol. The light-stimulus can include 10-40 s in duration and bandpassed at 455-495 nm (blue light).
As discussed above, the mixture a 10 μM of RubpyC17 solution was placed in 10 HEK293T cells.

CCCCCCCCCCCCCCCCCc1ccnc(-c2cc(C)ccn2)c1.F[P-](F)(F)(F)(F)F.F[P-](F)(F)(F)(F)F.[Ru+2].c1ccc(-c2ccccn2)nc1.c1ccc(-c2ccccn2)nc1 [RubpyC17, [Ru(bpy)2(bpy-C17)](PF6)2]
light-induced action potential firing / spike frequency ([1]; listed as Rubpy): spike frequency increased | light-induced action potential firing / spike frequency ([1]; listed as Rubpy-C17): respond to illumination by firing action potentials | light effect on action potential firing ([2]; 900 nM RubpyC17 pretreatment, 5 mM ascorbate): triggered action potentials or increased the rate of action potential firing | action potential firing rate of a single cell ([2]; 2 μM for 1.5 min, ascorbate changed for ferricyanide): light-induced increase and then light-induced decrease | reversal of firing effect after light illumination terminated ([2]; chromaffin cells): slow, gradual reversal; also recorded: slowly reversed | shape of action potential waveforms under light ([2]; chromaffin cells): no change in the shape of action potential waveforms | light effect on rate of action potential firing ([2]; ferricyanide 100 μM): decreased the rate of action potential firing | effect of increasing ferricyanide on action potential firing ([2]; ferricyanide from 100 to 200 μM): further suppressed action potential firing | fluorescence pattern (HEK293T cells; only PF6 counter ions): punctuate fluorescence | Cell Death (HEK293T cells; only counter ion is chloride): cell death is observed
